Measured values from US9593149B2, “Amylin and calcitonin receptor agonist” (Novo Nordisk A/S, priority 2014, dated 2017).
Values after ≈ are worked out from the molar mass of the structure shown. Numbered stars: 1 amine (or outer) side, 2 acyl side, 3 side chain; on linkers, the order of the positions; unused ones are H or OH. Peptide text beside a SMILES is read from it. * marks the point of attachment. C20 diacid = O=C(O)CCCCCCCCCCCCCCCCCCC(=O)*; C18 diacid = O=C(O)CCCCCCCCCCCCCCCCC(=O)*; γGlu = O=C(O)[C@H](CCC(=O)[*:2])N[*:1]; AEEA = NCCOCCOCC(=O)O

Assay: Assay (IV) determination of solubility
Type: physicochemical
Description: Assay (IV)—Determination of Solubility
The mimylin peptide was dissolved in water at ˜500 nmol/ml and mixed 1:1 with a series of buffers (100 mM glycylglycine pH 3.0, 100 mM glycylglycine pH 4.0, 100 mM glycylglycine pH 5.0, 100 mM bistrispropane pH 6.0, 100 mM bistrispropane pH 6.5, 100 mM bistrispropane pH 7.0, 100 mM bistrispropane pH 7.5, 100 mM bistrispropane pH 8.0).

| SMILES | Solubility (pH 3.0) | Solubility (pH 4.0) | Solubility (pH 5.0) | Solubility (pH 6.0) | Solubility (pH 6.5) | Solubility (pH 7.0) | Solubility (pH 7.5) | Solubility (pH 8.0) | solubility at 18 h (pH 4.0) | solubility at 18 h (pH 5.0) |
| --- | --- | --- | --- | --- | --- | --- | --- | --- | --- | --- |
| CC(C)C[C@H](NC(=O)[C@H](C)NC(=O)[C@H](C)NC(=O)[C@@H](NC(=O)[C@H](CO)NC(=O)[C@H](Cc1cnc[nH]1)NC(=O)[C@H](CCC(=O)O)NC(=O)[C@H](CO)NC(=O)[C@H](C)NC(=O)[C@H](CCC(=O)O)NC(=O)CCCCCCCCCCCCCCCCC(=O)O)[C@@H](C)O)C(=O)NCC(=O)N[C@@H](CCCNC(=N)N)C(=O)N[C@@H](CC(C)C)C(=O)N[C@@H](CO)C(=O)N[C@@H](C)C(=O)N[C@@H](CCC(=O)O)C(=O)N[C@@H](CC(C)C)C(=O)N[C@@H](Cc1cnc[nH]1)C(=O)N[C@@H](CCC(=O)O)C(=O)N[C@@H](CC(C)C)C(=O)N[C@@H](C)C(=O)N[C@H](C(=O)N[C@@H](CC(C)C)C(=O)N1CCC[C@H]1C(=O)N[C@@H](CCCNC(=N)N)C(=O)N[C@H](C(=O)N[C@@H](CCC(=O)O)C(=O)N[C@H](C(=O)NCC(=O)N1CCC[C@H]1C(=O)N[C@@H](CCC(=O)O)C(=O)N[C@@H](CO)C(=O)N1CCC[C@H]1C(N)=O)[C@@H](C)O)[C@@H](C)O)[C@@H](C)O [compound 17, [N-terminal(C18 diacid), 5H]mimylin] ({C18 diacid}-EASEHSTAALGRLSAELHELATLPRTETGPESP-NH2) | ≧200 μM | ≧200 μM | ≧200 μM | ≧200 μM | ≧200 μM | ≧200 μM | ≧200 μM | ≧200 μM | – | – |
| CC(C)C[C@H](NC(=O)[C@H](C)NC(=O)[C@H](C)NC(=O)[C@@H](NC(=O)[C@H](CO)NC(=O)[C@H](CC(C)C)NC(=O)[C@H](CCC(=O)O)NC(=O)[C@H](CO)NC(=O)[C@H](C)NC(=O)COCCOCCNC(=O)COCCOCCNC(=O)COCCOCCNC(=O)COCCOCCNC(=O)COCCOCCNC(=O)CC[C@H](NC(=O)CCCCCCCCCCCCCCCCCCC(=O)O)C(=O)O)[C@@H](C)O)C(=O)NCC(=O)N[C@@H](CCCNC(=N)N)C(=O)N[C@@H](CC(C)C)C(=O)N[C@@H](CO)C(=O)N[C@@H](C)C(=O)N[C@@H](CCC(=O)O)C(=O)N[C@@H](CC(C)C)C(=O)N[C@@H](Cc1cnc[nH]1)C(=O)N[C@@H](CCC(=O)O)C(=O)N[C@@H](CC(C)C)C(=O)N[C@@H](C)C(=O)N[C@H](C(=O)N[C@@H](CC(C)C)C(=O)N1CCC[C@H]1C(=O)N[C@@H](CCCNC(=N)N)C(=O)N[C@H](C(=O)N[C@@H](CCC(=O)O)C(=O)N[C@H](C(=O)NCC(=O)N[C@@H](CO)C(=O)NCC(=O)N[C@@H](CO)C(=O)N1CCC[C@H]1C(N)=O)[C@@H](C)O)[C@@H](C)O)[C@@H](C)O [compound 45, [N-terminal(C20 diacid-gGlu-5xOEG), des1, 30S, 31G]mimylin] ({C20 diacid-γGlu-AEEA-AEEA-AEEA-AEEA-AEEA}-ASELSTAALGRLSAELHELATLPRTETGSGSP-NH2) | ≧200 μM | ≧200 μM | ≧200 μM | ≧200 μM | ≧200 μM | ≧200 μM | ≧200 μM | ≧200 μM | – | – |
| CC(C)C[C@H](NC(=O)CNC(=O)[C@H](CO)NC(=O)[C@H](C)NC(=O)CC[C@H](NC(=O)CCCCCCCCCCCCCCCCCCC(=O)O)C(=O)O)C(=O)N[C@@H](CO)C(=O)N[C@H](C(=O)N[C@@H](C)C(=O)N[C@@H](C)C(=O)N[C@@H](CC(C)C)C(=O)NCC(=O)N[C@@H](CCCNC(=N)N)C(=O)N[C@@H](CC(C)C)C(=O)N[C@@H](CO)C(=O)N[C@@H](CCC(=O)O)C(=O)N[C@@H](CCC(=O)O)C(=O)N[C@@H](CC(C)C)C(=O)N[C@@H](Cc1cnc[nH]1)C(=O)N[C@@H](CCC(=O)O)C(=O)N[C@@H](CC(C)C)C(=O)N[C@@H](CCC(N)=O)C(=O)N[C@H](C(=O)N[C@@H](Cc1ccc(O)cc1)C(=O)N1CCC[C@H]1C(=O)N[C@@H](CCCNC(=N)N)C(=O)N[C@H](C(=O)N[C@@H](CCC(=O)O)C(=O)N[C@H](C(=O)NCC(=O)N[C@@H](CO)C(=O)NCC(=O)N[C@H](C(=O)N[C@@H](Cc1ccc(O)cc1)C(N)=O)[C@@H](C)O)[C@@H](C)O)[C@@H](C)O)[C@@H](C)O)[C@@H](C)O [compound 113, [N-terminal(C20 diacid-gGlu), des1, 4G, 15E, 21Q, 23Y, 30S, 31G, 32T, 33Y]mimylin] ({C20 diacid-γGlu}-ASGLSTAALGRLSEELHELQTYPRTETGSGTY-NH2) | ≧200 μM | – | – | ≧200 μM | ≧200 μM | ≧200 μM | ≧200 μM | ≧200 μM | 195 µM (≈ 751 µg/mL) | 57 µM (≈ 219 µg/mL) |
| CC(C)C[C@H](NC(=O)CNC(=O)[C@H](CO)NC(=O)[C@H](C)NC(=O)CC[C@H](NC(=O)CCCCCCCCCCCCCCCCCCC(=O)O)C(=O)O)C(=O)N[C@@H](CO)C(=O)N[C@H](C(=O)N[C@@H](C)C(=O)N[C@@H](C)C(=O)N[C@@H](CC(C)C)C(=O)NCC(=O)N[C@@H](CCCNC(=N)N)C(=O)N[C@@H](CC(C)C)C(=O)N[C@@H](CO)C(=O)N[C@@H](CCC(N)=O)C(=O)N[C@@H](CCC(=O)O)C(=O)N[C@@H](CC(C)C)C(=O)N[C@@H](Cc1cnc[nH]1)C(=O)N[C@@H](CCC(=O)O)C(=O)N[C@@H](CC(C)C)C(=O)N[C@@H](CCC(N)=O)C(=O)N[C@H](C(=O)N[C@@H](Cc1ccc(O)cc1)C(=O)N1CCC[C@H]1C(=O)N[C@@H](Cc1cnc[nH]1)C(=O)N[C@H](C(=O)N[C@@H](CCC(=O)O)C(=O)N[C@H](C(=O)NCC(=O)N[C@@H](CO)C(=O)NCC(=O)N[C@H](C(=O)N[C@@H](Cc1ccc(O)cc1)C(N)=O)[C@@H](C)O)[C@@H](C)O)[C@@H](C)O)[C@@H](C)O)[C@@H](C)O [compound 117, [N-terminal(C20 diacid-gGlu), des1, 4G, 15Q, 21Q, 23Y, 25H, 30S, 31G, 32T, 33Y]mimylin] ({C20 diacid-γGlu}-ASGLSTAALGRLSQELHELQTYPHTETGSGTY-NH2) | ≧200 μM | ≧200 μM | – | ≧200 μM | ≧200 μM | ≧200 μM | ≧200 μM | ≧200 μM | – | 38 µM (≈ 146 µg/mL) |

Now from value to molecule:

| Solubility (pH 3.0) | Solubility (pH 4.0) | Solubility (pH 5.0) | Solubility (pH 6.0) | Solubility (pH 6.5) | Solubility (pH 7.0) | Solubility (pH 7.5) | Solubility (pH 8.0) | solubility at 18 h (pH 4.0) | solubility at 18 h (pH 5.0) | SMILES |
| --- | --- | --- | --- | --- | --- | --- | --- | --- | --- | --- |
| ≧200 μM | ≧200 μM | ≧200 μM | ≧200 μM | ≧200 μM | ≧200 μM | ≧200 μM | ≧200 μM | – | – | CC(C)C[C@H](NC(=O)[C@H](CCC(=O)O)NC(=O)[C@H](Cc1cnc[nH]1)NC(=O)[C@H](CC(C)C)NC(=O)[C@H](CCC(=O)O)NC(=O)[C@H](C)NC(=O)[C@H](CO)NC(=O)[C@H](CC(C)C)NC(=O)[C@H](CCCNC(=N)N)NC(=O)CNC(=O)[C@H](CC(C)C)NC(=O)[C@@H](NC(=O)[C@H](C)NC(=O)[C@@H](NC(=O)[C@H](CO)NC(=O)[C@H](CC(C)C)NC(=O)[C@H](CCC(=O)O)NC(=O)[C@H](CO)NC(=O)[C@H](C)NC(=O)[C@H](CCC(=O)O)NC(=O)CCCCCCCCCCCCCCCCC(=O)O)[C@@H](C)O)C(C)C)C(=O)N[C@@H](C)C(=O)N[C@H](C(=O)N[C@@H](CC(C)C)C(=O)N1CCC[C@H]1C(=O)N1CCC[C@H]1C(=O)N[C@H](C(=O)N[C@@H](CCC(=O)O)C(=O)N[C@H](C(=O)NCC(=O)N1CCC[C@H]1C(=O)N[C@@H](CCC(=O)O)C(=O)N[C@@H](CO)C(=O)N1CCC[C@H]1C(N)=O)[C@@H](C)O)[C@@H](C)O)[C@@H](C)O [compound 31, [N-terminal(C18 diacid), 9V, 25P]mimylin] ({C18 diacid}-EASELSTAVLGRLSAELHELATLPPTETGPESP-NH2) |
| ≧200 μM | ≧200 μM | ≧200 μM | ≧200 μM | ≧200 μM | ≧200 μM | ≧200 μM | ≧200 μM | – | – | CC(C)C[C@H](NC(=O)[C@H](CCC(=O)O)NC(=O)[C@H](Cc1cnc[nH]1)NC(=O)[C@H](CC(C)C)NC(=O)[C@H](CCC(=O)O)NC(=O)[C@H](C)NC(=O)[C@H](CO)NC(=O)[C@H](CC(C)C)NC(=O)[C@H](CCCNC(=N)N)NC(=O)CNC(=O)[C@H](CC(C)C)NC(=O)[C@@H](NC(=O)[C@H](C)NC(=O)[C@@H](NC(=O)[C@H](CO)NC(=O)[C@H](CC(C)C)NC(=O)[C@@H]1CCCN1C(=O)[C@H](CO)NC(=O)[C@H](C)NC(=O)[C@H](CCC(=O)O)NC(=O)CCCCCCCCCCCCCCCCC(=O)O)[C@@H](C)O)C(C)C)C(=O)N[C@@H](C)C(=O)N[C@H](C(=O)N[C@@H](CC(C)C)C(=O)N1CCC[C@H]1C(=O)N[C@@H](CCCNC(=N)N)C(=O)N[C@H](C(=O)N[C@@H](CCC(=O)O)C(=O)N[C@H](C(=O)NCC(=O)N1CCC[C@H]1C(=O)N[C@@H](CCC(=O)O)C(=O)N[C@@H](CO)C(=O)N1CCC[C@H]1C(N)=O)[C@@H](C)O)[C@@H](C)O)[C@@H](C)O [compound 30, [N-terminal(C18 diacid), 4P, 9V]mimylin] ({C18 diacid}-EASPLSTAVLGRLSAELHELATLPRTETGPESP-NH2) |
